How the values were obtained:
GDSC cell line panel = GDSC cell line panel drug activity (IC50, Cell Titer Glo measurement of ATP); assay type: cell-based; conditions: GDSC triple negative breast cancer lines (21); p<7E-10
Method: (§1) To determine reproducibility across institutes and assay types, we tested a selected set of NCI-60-screened compounds for activity in the GDSC cell line panel (Table 1). Drug data reproducibility may be affected by potential sources of data divergence such as assay type and duration for drug treatment. Noting that the GDSC and the NCI/DTP used different assays to determine their IC50 values (Cell Titer Glo measurements of ATP at 72 hours post-treatment versus sulforhodamine B measurement of total protein at 48 hours post-treatment), we compared 19 drugs referenced by their NSCs (National Service Center identifiers) and associated with a range of mechanisms of action types. The drugs with the strongest correlations were oxyphenisatin acetate (Acetalax) (FIG. 5a, R=0.80, p=1.1×10^−10, N=43) and bisacodyl (FIG. 5b, R=0.84, p=9.0×10^−13, N=44). These FDA-approved laxatives lacked pre-existing data in the CTRP, CCLE and GDSC.
In this work, the drugs were assessed in a different institution using a different assay using 1,080 cell lines, including 21 triple negative breast cancers (FIG. 8A, B). […]
DETERMINATION OF PROSPECTIVE TRIPLE NEGATIVE BREAST CANCERS. Transcript expression levels of ERBB2, ESR1, ESR2 and PGR (HER2, estrogen receptor and progesterone receptor) were assessed by GDSC using the Affymetrix Human Genome U219 Array and accessed in CellMinerCDB. […]

NCI-60 cell lines = assay: NCI-60 compound activity (z score of GI50, sulforhodamine B total protein assay, DTP); assay type: cell-based; conditions: for Activity (Z score) against breast cancer cell lines: 4 of 5 tested breast cancer cell lines (MCF7, HS578T, BT549, T47D); for Anticancer activity compared with all available (~178) FDA-approved drugs: HS 578T and BT-549 cell lines, FIG. 7B; for Activity (Z score) pattern against NCI-60 cell lines: certain breast cancer, colorectal cancer and ovarian cancer cell lines, FIG. 6; for Activity (Z score) against ovarian cancer cell lines: four of seven ovarian cancer cell lines (OVCAR-3, OVCAR-4, OVCAR-8, NCI-ADR-RES); for Effectiveness compared with 13 approved breast cancer drugs: triple negative breast cancer cell lines HS 578T and BT-549 (two of three NCI-60 TNBC lines), FIG. 7A; for Activity (Z score) against colorectal cell lines: two of seven colorectal cell lines (COLO205 and HCC2998)
Method: as §1
Acetalax and bisacodyl activities against a number of NCI-60 cell lines were obtained.
NCI-60 drug activity, molecular profiling, and annotation data was obtained from CellMiner (Database Version 2.1). […] Detailed information about CellMiner data preparation is publically available for example, in Reinhold, W. C. et al., Cancer Res. 72:3499-3511 (2012), Reinhold, W. C. et al., Cancer Res. 77:601-612 (2017), Abaan, O. D. et al., Cancer Res. 73:4372-4382 (2013), and Varma, S. et al., PloS One 9: e92047 (2014), as well as being documented within CellMiner.
COMPOUND ACTIVITY. Compound activity is indicated as a standardized, ‘z-score’ value derived from measurement of the cell line-specific 50% growth-inhibitory (GIS0) concentration using the sulforhodamine B total protein cytotoxicity assay generated by the Developmental Therapeutics Program (dtp.cancer.gov). In particular, for each compound, the mean and standard deviation of −log 10 [molar GI50] values over the NCI-60 lines are used to center and scale the data.

| SMILES | Activity compared with the oncology drugs tested (GDSC cell line panel) | Activity (Z score) against breast cancer cell lines (NCI-60 cell lines) | Anticancer activity compared with all available (~178) FDA-approved drugs (NCI-60 cell lines) | Activity (Z score) pattern against NCI-60 cell lines (NCI-60 cell lines) | Activity (Z score) against ovarian cancer cell lines (NCI-60 cell lines) | Effectiveness compared with 13 approved breast cancer drugs (NCI-60 cell lines) | Activity (Z score) against colorectal cell lines (NCI-60 cell lines) |
| --- | --- | --- | --- | --- | --- | --- | --- |
| CC(=O)Oc1ccc(C2(c3ccc(OC(C)=O)cc3)C(=O)Nc3ccccc32)cc1 [Oxyphenisatin acetate (Acetalax), Oxyphenisatin acetate] | more active than any of the oncology drugs | robust activity | superior anticancer activity | strong efficacy | robust activity | more effective | robust activity |
| CC(=O)Oc1ccc(C(c2ccc(OC(C)=O)cc2)c2ccccn2)cc1 [Bisacodyl] | more active than any of the oncology drugs | robust activity | superior anticancer activity | strong efficacy | robust activity | more effective | robust activity |

Source: patent US12714691B2, “Method of treating triple-negative breast cancer” (THE UNITED STATES OF AMERICA, AS REPRESENTED BY THE …, priority 2018, dated 2026)
